According to patent US11427548B2 (Arvinas Operations, Inc., priority 2015, dated 2022):
Where two headings read alike, the source gives them in different places. Blank lines part the entries; values can stand above or below the compound they belong to.

Biological target: T1, Androgen Receptor (Homo sapiens, UniProt P10275)
T1 construct: endogenous in cells; host or cells: VCaP cells
T1 sequence (P10275 1-920): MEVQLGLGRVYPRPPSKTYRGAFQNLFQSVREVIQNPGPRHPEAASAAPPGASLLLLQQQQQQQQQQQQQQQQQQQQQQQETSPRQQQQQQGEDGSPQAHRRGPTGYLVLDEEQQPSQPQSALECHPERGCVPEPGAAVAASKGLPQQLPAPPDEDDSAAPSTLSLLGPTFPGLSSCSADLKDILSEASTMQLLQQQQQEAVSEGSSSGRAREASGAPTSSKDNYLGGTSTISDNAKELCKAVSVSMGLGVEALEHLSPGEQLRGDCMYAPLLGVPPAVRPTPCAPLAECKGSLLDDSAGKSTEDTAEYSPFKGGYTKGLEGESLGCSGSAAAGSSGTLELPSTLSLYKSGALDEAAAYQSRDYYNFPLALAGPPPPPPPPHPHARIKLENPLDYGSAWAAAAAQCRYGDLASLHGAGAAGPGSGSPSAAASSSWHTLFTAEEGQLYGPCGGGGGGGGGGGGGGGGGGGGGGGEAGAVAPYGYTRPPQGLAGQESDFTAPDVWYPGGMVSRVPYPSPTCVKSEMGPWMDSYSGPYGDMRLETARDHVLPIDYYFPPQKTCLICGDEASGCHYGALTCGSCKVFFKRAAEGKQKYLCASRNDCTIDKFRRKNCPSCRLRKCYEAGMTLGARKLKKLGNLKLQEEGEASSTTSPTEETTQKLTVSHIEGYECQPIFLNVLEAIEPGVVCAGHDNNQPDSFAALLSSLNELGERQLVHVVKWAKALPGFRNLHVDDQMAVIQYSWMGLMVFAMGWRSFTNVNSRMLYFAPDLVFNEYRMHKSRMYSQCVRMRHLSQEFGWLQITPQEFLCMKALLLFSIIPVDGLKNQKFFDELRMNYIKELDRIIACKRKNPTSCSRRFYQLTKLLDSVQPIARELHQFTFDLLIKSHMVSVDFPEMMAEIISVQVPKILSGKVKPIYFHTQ
Assay: Androgen Receptor ELISA assay (PathScan AR ELISA) in VCaP cells: AR degradation, Dmax and DC50
Format: cell-based
In short: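 After 24 h exposure of VCaP cells (charcoal-stripped serum, 0.1 nM R1881 agonist, 0.1% DMSO) to seven half-log compound concentrations, residual AR in lysates was measured by PathScan ELISA (TMB absorbance, 450 nm). Cells were plated at 30,000/well and grown at least 3 days beforehand.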

[1] = VCaP cells; Table 36; read-out: VCaP DC50
[2] = VCaP, VCaP cells; Table 36; read-out: VCaP Dmax (%)
[3] = VCaP cells; Table 34; read-out: VCaP DC50
[4] = VCaP, VCaP cells; Table 34; read-out: VCaP Dmax (%)
[5] = VCaP cells; Table 35; read-out: VCaP DC50
[6] = VCaP, VCaP cells; Table 35; read-out: VCaP Dmax (%)
[7] = read-out: VCaP DC50; VCaP cells; Table 34
[8] = read-out: VCaP DC50; concentration that caused 50% Androgen Receptor degradation, VCaP cells (Table 32)

DC50 [3]: < 50 nM
Dmax [4]: > 71%
Structure (SMILES): Cc1ncsc1-c1ccc([C@H](C)NC(=O)[C@@H]2C[C@@H](O)CN2C(=O)[C@@H](NC(=O)COCCCOCCCCOc2ccc(N3C(=S)N(c4cnc(C#N)c(C(F)(F)F)c4)C(=O)C3(C)C)cc2)C(C)(C)C)cc1 [Example 365]

DC50 [3]: < 50 nM
Dmax [4]: > 71%
Structure (SMILES): CC(C)(C)[C@H](NC(=O)COc1ccc(OCCOc2ccc(N3C(=S)N(c4cnc(C#N)c(C(F)(F)F)c4)C(=O)C3(C)C)cc2)cc1)C(=O)N1C[C@H](O)C[C@H]1C(=O)NCc1ccc(-c2cnco2)cc1 [Example 371]

DC50 [1]: < 50 nM
Dmax [2]: 51 to 70%
Structure (SMILES): Cc1ncsc1-c1ccc([C@H](C)NC(=O)[C@@H]2C[C@@H](O)CN2C(=O)[C@@H](NC(=O)CN2CCN(CCCc3ccc(C(=O)N[C@H]4C(C)(C)[C@H](Oc5ccc(C#N)c(C(F)(F)F)c5)C4(C)C)cc3)CC2)C(C)(C)C)cc1 [Example 665, (2S,4R)-1-((S)-2-(2-(4-(3-(4-(((1r,3r)-3-(4-cyano-3-(trifluoromethyl)phenoxy)-2,2,4,4-tetramethylcyclobutyl)carbamoyl)phenyl)propyl)piperazin-1-yl)acetamido)-3,3-dimethylbutanoyl)-4-hydroxy-N-((S)-1-(4-(4-methylthiazol-5-yl)phenyl)ethyl)pyrrolidine-2-carboxamide]

DC50 [5]: < 50 nM
Dmax [6]: > 71%
Structure (SMILES): CC(C)(C)[C@H](NC(=O)COCCCCCNc1ccc(C(=O)N[C@H]2C(C)(C)[C@H](Oc3ccc(C#N)c(Cl)c3)C2(C)C)cc1)C(=O)N1C[C@H](O)C[C@H]1C(=O)NCc1ccc(-c2scnc2N)cc1 [Example 503]

DC50 [5]: < 50 nM
Dmax [6]: > 71%
Structure (SMILES): Cc1ncsc1-c1ccc(CNC(=O)[C@@H]2C[C@@H](O)CN2C(=O)[C@@H](NC(=O)COCCCCCNc2ccc(C(=O)N[C@H]3C(C)(C)[C@H](Oc4ccc(C#N)c(Cl)c4)C3(C)C)cc2)C(C)(C)C)cn1 [Example 516]

DC50 [1]: < 50 nM
Dmax [2]: 26 to 50%
Structure (SMILES): Cc1ncsc1-c1ccc(CNC(=O)[C@@H]2C[C@@H](O)CN2C(=O)[C@@H](NC(=O)CN2CCN(CCOc3ccc(C(=O)N[C@H]4C(C)(C)[C@H](Oc5ccc(C#N)c(C(F)(F)F)c5)C4(C)C)cc3)CC2)C(C)(C)C)cc1 [Example 646, (2S,4R)-1-((S)-2-(2-(4-(2-(4-(((1r,3r)-3-(4-cyano-3-(trifluoromethyl)phenoxy)-2,2,4,4-tetramethylcyclobutyl)carbamoyl)phenoxy)eth-yl)piperazin-1-yl)actamido)-3,3-dimethylbutanoyl)-4-hydroxy-N-(4-(4-methylthiazol-5-yl)benzyl)pyrrolidine-2-carboxamide]

DC50 [1]: < 50 nM
Dmax (VCaP, read-out: VCaP Dmax (%), VCaP cells; Table 36): 51 to 70%
Structure (SMILES): Cc1ncsc1-c1ccc([C@H](C)NC(=O)[C@@H]2C[C@@H](O)CN2C(=O)[C@@H](NC(=O)COCCCCCc2ccc(C(=O)N[C@H]3C(C)(C)[C@H](Oc4ccc(C#N)c(C(F)(F)F)c4)C3(C)C)cc2)C(C)(C)C)cc1 [Example 657, (2S,4R)-1-((S)-2-(2-((5-(4-(((1r,3r)-3-(4-cyano-3-(trifluoromethyl)phenoxy)-2,2,4,4-tetramethylcyclobutyl)carbamoyl)phenyl)pentyl)oxy)acetamido)-3,3-dimethylbutanoyl)-4-hydroxy-N-((S)-1-(4-(4-methylthiazol-5-yl)phenyl)ethyl)pyrrolidine-2-carboxamide]

DC50 [5]: < 50 nM
Dmax [6]: > 71%
Structure (SMILES): Cc1ncsc1-c1ccc([C@H](C)NC(=O)[C@@H]2C[C@@H](O)CN2C(=O)[C@@H](NC(=O)CNC(=O)c2ccc(Oc3ccc(C(=O)N[C@H]4C(C)(C)[C@H](Oc5ccc(C#N)c(Cl)c5)C4(C)C)cn3)cc2)C(C)(C)C)cc1 [Example 448]

DC50 [3]: < 50 nM
Dmax [4]: > 71%
Structure (SMILES): Cc1ncsc1-c1ccc(CNC(=O)[C@@H]2C[C@@H](O)CN2C(=O)[C@@H](NC(=O)CO[C@@H](C)c2ccc(Oc3ccc(C(=O)N[C@H]4C(C)(C)[C@H](Oc5ccc(C#N)c(Cl)c5)C4(C)C)cc3)cc2)C(C)(C)C)cc1 [Example 406]

More lines, now with the values behind:

Structure (SMILES): CC(C)C[C@@H](C(=O)N[C@@H](C)C(=O)N1C[C@H](O)C[C@H]1C(=O)N[C@@H](C)c1ccc(Cl)cc1)N1CCN(CCCc2ccc(C(=O)N[C@H]3C(C)(C)[C@H](Oc4ccc(C#N)c(Cl)c4)C3(C)C)cc2)CC1 [Example 738, (2S,4R)-1-(((S)-2-(4-(3-(4-(((1r,3r)-3-(3-chloro-4-cyanophenoxy)-2,2,4,4-tetramethylcyclobutyl)carbamoyl)phenyl)propyl)piperazin-1-yl)-4-methylpentanoyl)-L-alanyl)-N-((S)-1-(4-chlorophenyl)ethyl)-4-hydroxypyrrolidine-2-carboxamide]
DC50 [1]: > 501 nM
Dmax [2]: < 25%

Structure (SMILES): Cc1ncsc1-c1ccc([C@H](C)NC(=O)[C@@H]2C[C@@H](O)CN2C(=O)[C@@H](NC(=O)COCCCCCC2(c3ccc(C(=O)N[C@H]4C(C)(C)[C@H](Oc5ccc(C#N)c(Cl)c5)C4(C)C)cc3)COC2)C(C)(C)C)cc1 [Example 685, (2S,4R)-1-((S)-2-(2-((5-(3-(4-(((1r,3r)-3-(3-chloro-4-cyanophenoxy)-2,2,4,4-tetramethylcyclobutyl)carbamoyl)phenyl)oxetan-3-yl)pentyl)oxy)acetamido)-3,3-dimethylbutanoyl)-4-hydroxy-N-((S)-1-(4-(4-methylthiazol-5-yl)phenyl)ethyl)pyrrolidine-2-carboxamide]
DC50 [1]: < 50 nM
Dmax [2]: > 71%

Structure (SMILES): Cc1ncsc1-c1ccc([C@H](C)NC(=O)[C@@H]2C[C@@H](O)CN2C(=O)[C@@H](NC(=O)CN2CCN(CCCc3ccc(C(=O)N[C@H]4C(C)(C)[C@H](Oc5ccc(C#N)c(Cl)c5)C4(C)C)cc3)CC2)C2COC2)cc1 [Example 751, (2S,4R)-1-((S)-2-(2-(4-(3-(4-(((1r,3r)-3-(3-chloro-4-cyanophenoxy)-2,2,4,4-tetramethylcyclobutyl)carbamoyl)phenyl)propyl)piperazin-1-yl)acetamido)-2-(oxetan-3-yl)acetyl)-4-hydroxy-N-((S)-1-(4-(4-methylthiazol-5-yl)phenyl)ethyl)pyrrolidine-2-carboxamide]
DC50 [1]: > 501 nM
Dmax [2]: < 25%

Structure (SMILES): Cc1ncsc1-c1ccc(CNC(=O)[C@@H]2C[C@@H](O)CN2C(=O)[C@@H](NC(=O)COCCCOCCCCNc2ccc(N3C(=S)N(c4ccc(C#N)c(C(F)(F)F)c4)C(=O)C3(C)C)cc2)C(C)(C)C)cc1 [Example 333]
Dmax (VCaP, read-out: VCaP Dmax (%)): 51 to 70%
DC50 [7]: < 50 nM

Structure (SMILES): Cc1ncsc1-c1ccc(CNC(=O)[C@@H]2C[C@@H](O)CN2C(=O)[C@@H](NC(=O)COC[C@H]2C[C@H](Oc3ccc(-c4ccc(N5C(=S)N(c6ccc(C#N)c(C(F)(F)F)c6)C(=O)C5(C)C)cc4)cc3)C2)C(C)(C)C)cc1 [Example 565]
Dmax (VCaP, read-out: VCaP Dmax (%)): > 71%
DC50 (read-out: VCaP DC50; VCaP cells; Table 35): < 50 nM

Structure (SMILES): Cc1ncsc1-c1ccc(CNC(=O)[C@@H]2C[C@@H](O)CN2C(=O)[C@@H](NC(=O)COCCCCOc2ccc(-c3ccc(N4C(=S)N(c5ccc(C#N)c(Cl)c5)C(=O)C4(C)C)c(F)c3)cc2)C(C)(C)C)cc1 [Example 107, (2S,4R)-1-[(2S)-2-{2-[4-(4-{4-[3-(3-chloro-4-cyanophenyl)-5,5-dimethyl-4-oxo-2-sulfanylideneimidazolidin-1-yl]-3-fluorophenyl}phen-oxy)butoxy]acetamido}-3,3-dimethylbutanoyl]-4-hydroxy-N-{[4-(4-methyl-1,3-thiazol-5-yl)phenyl]methyl}pyrrolidine-2-carboxamide]
Dmax (VCaP, read-out: VCaP Dmax (%)): > 71%
DC50 [8]: < 50 nM

Structure (SMILES): Cc1ncsc1-c1ccc(CNC(=O)[C@@H]2C[C@@H](O)CN2C(=O)[C@H](C(C)C)N2CC(OCCOCCOc3ccc(N4C(=S)N(c5ccc(C#N)c(C(F)(F)F)c5)C(=O)C4(C)C)cc3)=CC2=O)cc1 [Example 314]
Dmax (VCaP, read-out: VCaP Dmax (%)): < 25%
DC50 [7]: 51 to 500 nM

Structure (SMILES): Cc1ncoc1-c1ccc(CNC(=O)[C@@H]2C[C@@H](O)CN2C(=O)[C@@H](NC(=O)COCCCCOc2ccc(-c3ccc(N4C(=S)N(c5ccc(C#N)c(Cl)c5)C(=O)C4(C)C)c(F)c3)cc2)C(C)(C)C)cc1 [Example 100, (2S,4R)-1-[(2S)-2-{2-[4-(4-{4-[3-(3-chloro-4-cyanophenyl)-5,5-dimethyl-4-oxo-2-sulfanylideneimidazolidin-1-yl]-3-fluorophenyl}phen-oxy)butoxy]acetamido}-3,3-dimethylbutanoyl]-4-hydroxy-N-{[4-(4-methyl-1,3-oxazol-5-yl)phenyl]methyl}pyrrolidine-2-carboxamide]
Dmax (VCaP, read-out: VCaP Dmax (%)): > 71%
DC50 [8]: < 50 nM
